# According to patent US20230381142A1, “ANTILEISHMANIAL COMPOUNDS, COMPOSITIONS AND USE THEREOF” (TRUSTEES OF BOSTON UNIVERSITY, priority 2022, published 2023):
# Assays:
# [1] = UCSD infection assay, host cell cytotoxicity (CC50); type: cell-based; settings: mouse, B10R host cells infected with L. donovani; host B10R cells
# Description: (§1) Assay Conditions D: B10R cells (CVCL_0155) were seeded at 300 cells/well, and L. donovani WT promastigotes in stationary phase (7th day after passage) were added at 6,000 parasites/well (ratio of 20 parasites/cell). Both cells and parasites were seeded in DMEM High-Glucose medium (Gibco, cat. no. 11995065) containing 5% Fetal Bovine Serum (Sigma-Aldrich, cat. no. F2442) and 1% Penicillin-Streptomycin (Gibco, cat. no. 15140122). Cells and parasites were incubated in the presence of the compounds for 72 h at 37° C. and 5% C02. Plates were then fixed with 4% formaldehyde solution for at least 1 h, then washed with 1×PBS and stained with 5 μg/mL DAPI. Plates were read using an ImageXpress microscope (Molecular Devices) and analyzed by MetaXpress software (Molecular Devices) using a custom module optimized for this assay. […] Compounds were tested in a 10-point 2-fold serial dilution in 3 technical replicates, and 2 biological replicates. After 72 h, plates were fixed and stained with DAPI as described above. Images were acquired on an ImageXpress microscope, and analyzed using the MetaXpress custom module.
# as §1, with “Compounds were obtained as 0.2 μmoles of dried film for primary single point screening. Each compound was diluted in DMSO to 10 μM final testing concentration. These compounds were tested in 2 biological replicates. The compounds were pre-spotted onto 384-well assay plates in single concentration.” for “Assay Conditions D:”, “CO2.” for “C02.”, “module. The DRCs were plotted, half-effective concentration (EC50) and half-cytotoxic concentration (CC50) were calculated using GraphPad Prism Software, version 6.05 (GraphPad Software, San Diego, CA).” for “module.”
# [2] = system: L. donovani intracellular amastigotes in B10R cells; assay: UCSD L. donovani infection assay (Assay Conditions D); type: cell-based; settings: for IC50: Leishmania donovani
# Summary of the method: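 Compounds, either single-point at 10 μM or 10-point 2-fold series (3 technical, 2 biological replicates), were incubated 72 h at 37° C. with B10R host cells co-seeded with day-7 stationary L. donovani promastigotes (20:1). DAPI-stained nuclei imaging yielded intracellular parasite EC50 and host-cell CC50.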
# [3] = Kinetic aqueous solubility by CLND; type: physicochemical; settings: kinetic from dmso stock, high-throughput CLND
# Description: Solubility of compounds using ChemiLuminescent Nitrogen Detection (CLND) was measured as described. Solubility of compounds using Charged Aerosol Detection (CAD) was measured as described. Solubility of solid compounds in Fasted Simulated Intestinal Fluid (FaSSIF) was measured as described.
# [4] = Artificial membrane permeability (AMP); type: in vitro ADME; settings: PAMPA, pH 7.4
# Summary of the method: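 Passive permeation through 1.8% phosphatidylcholine in 1% decane membrane, 50 mM phosphate buffer pH 7.4 on donor and receiver sides. After 45 min pre-shaking, compounds incubated 3 h at room temperature with shaking, in duplicate; donor and receiver solutions quantified by LC/MS.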
# [5] = Property forecast index (PFI = ChromLogD7.4 + aromatic rings); type: physicochemical
# human serum albumin = human serum albumin (Homo sapiens, UniProt P02768); assay: Human serum albumin (HSA) binding, chromatographic; type: in vitro ADME
# human serum albumin, sequence (P02768 25-609): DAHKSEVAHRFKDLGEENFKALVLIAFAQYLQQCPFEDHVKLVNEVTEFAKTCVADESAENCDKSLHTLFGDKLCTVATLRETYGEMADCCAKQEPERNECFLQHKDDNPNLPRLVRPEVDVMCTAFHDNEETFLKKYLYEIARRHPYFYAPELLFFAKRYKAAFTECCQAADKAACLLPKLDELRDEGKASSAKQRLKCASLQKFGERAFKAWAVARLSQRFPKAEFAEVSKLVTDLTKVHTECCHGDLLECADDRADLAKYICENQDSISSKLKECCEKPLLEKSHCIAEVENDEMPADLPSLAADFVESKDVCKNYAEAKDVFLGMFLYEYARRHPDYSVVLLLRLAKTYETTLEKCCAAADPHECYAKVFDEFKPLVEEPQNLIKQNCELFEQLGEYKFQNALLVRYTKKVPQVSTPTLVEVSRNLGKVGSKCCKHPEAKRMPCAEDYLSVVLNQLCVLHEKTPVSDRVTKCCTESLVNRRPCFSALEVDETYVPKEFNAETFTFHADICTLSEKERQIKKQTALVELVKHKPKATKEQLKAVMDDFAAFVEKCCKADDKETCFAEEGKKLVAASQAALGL
# Description: The percentage of compound bound to human serum albumin was measured using a chromatographic method as described. Briefly, each compound was assayed on an immobilized HSA column and gradient retention times measured, with chromatographic peak detection by UV. Each retention time was then converted to a % HSA bound value using a calibration set of compounds with a known % HSA binding.
# host THP-1 macrophages = assay: GSK inMac assay, host cell toxicity readout (LD MAC); type: cell-based, human; settings: Homo sapiens, THP-1, cytotoxicity against host THP-1 macrophages
# Summary of the method: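 MAC EC50 reflects THP-1 host cell counts, measured within GSK's inMac L. donovani infection assay that also scores intracellular amastigotes and infected-cell percentage.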
# HepG2 cells = assay: HepG2 cytotoxicity; type: cell-based; settings: Homo sapiens; toxicity against HepG2 cells
# [6] = system: L. donovani intracellular amastigotes infecting THP-1 macrophages; assay: GSK intramacrophage L. donovani assay (LD AMMAC, inMac; Assay Conditions C); type: cell-based; settings: Leishmania donovani; for IC50: THP-1; for EC50: growth inhibition of L. donovani intracellular amastigotes infecting THP-1 macrophages, read-out: LD AMMAC EC50
# Summary of the method: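 EC50 values come from counting amastigotes per infected THP-1 macrophage (AMMAC). Parallel read-outs give percentage of infected cells per well (INFCELL) and a macrophage-number toxicity EC50 (MAC).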
# [7] = aqueous medium (not further specified)
compound,measurement,setting,value
Cc1ccc(N2C(=O)c3[nH]nc(CC(C)C)c3C2c2ccc(Cl)cc2F)cn1 (centres unmarked) [BUCMD00627],CC50 at 72 h,[1],10 µM
same,"L. donovani amastigotes EC75 (μM, B10R cells)",[2],>10 µM
Cc1ccc(N2C(=O)c3[nH]nc(CC(C)C)c3C2c2ccccc2C)cn1 (centres unmarked) [BUCMD00628],CC50 at 72 h,[1],15.8 µM
same,"L. donovani amastigotes EC75 (μM, B10R cells)",[2],3.2 µM
Cc1ccc(N2C(=O)c3[nH]nc(CC(C)C)c3C2c2ccccc2Cl)cn1 (centres unmarked) [BUCMD00640],CC50 at 72 h,[1],12.6 µM
same,"L. donovani amastigotes EC75 (μM, B10R cells)",[2],3.4 µM
Cc1ccc(N2C(=O)c3[nH]nc(CC(C)C)c3C2c2ccc(Br)cc2F)cn1 (centres unmarked) [BUCMD00641],CC50 at 72 h,[1],12.6 µM
same,"L. donovani amastigotes EC75 (μM, B10R cells)",[2],>10 µM
Cc1ccc(N2C(=O)c3[nH]nc(CC(C)C)c3C2c2ccc(F)cc2Cl)cn1 (centres unmarked) [BUCMD00642],CC50 at 72 h,[1],10 µM
same,"L. donovani amastigotes EC75 (μM, B10R cells)",[2],1.3 µM
COc1ccc(N2C(=O)c3[nH]nc(CC(C)C)c3C2c2ccccc2C)nc1 (centres unmarked) [BUCMD00645],CC50 at 72 h,[1],20 µM
same,"L. donovani amastigotes EC75 (μM, B10R cells)",[2],>10 µM
COc1ccc(N2C(=O)c3[nH]nc(CC(C)C)c3C2c2ccc(F)cc2C)nc1 (centres unmarked) [BUCMD00646],CC50 at 72 h,[1],12.6 µM
same,"L. donovani amastigotes EC75 (μM, B10R cells)",[2],>10 µM
COc1ccc(N2C(=O)c3[nH]nc(CC(C)C)c3C2c2ccccc2Cl)nc1 (centres unmarked) [BUCMD00647],CC50 at 72 h,[1],10 µM
same,"L. donovani amastigotes EC75 (μM, B10R cells)",[2],>10 µM
COc1ccc(N2C(=O)c3[nH]nc(CC(C)C)c3C2c2ccc(Br)cc2F)nc1 (centres unmarked) [BUCMD00648],CC50 at 72 h,[1],3.98 µM
same,"L. donovani amastigotes EC75 (μM, B10R cells)",[2],>10 µM
CC(C)Cc1n[nH]c2c1C(c1ccccc1C(F)(F)F)N(c1cncc(F)c1)C2=O (centres unmarked) [BUCMD00699],CC50 at 72 h,[1],5.01 µM
same,"L. donovani amastigotes EC75 (μM, B10R cells)",[2],1.4 µM
CC(C)Cc1n[nH]c2c1C(c1ccccc1F)N(c1cncc(F)c1)C2=O (centres unmarked) [BUCMD00700],CC50 at 72 h,[1],10 µM
same,"L. donovani amastigotes EC75 (μM, B10R cells)",[2],1.3 µM
CC(C)Cc1n[nH]c2c1C(c1ccc(F)cc1Cl)N(c1ccc(C(=O)N3CCCC3)cc1)C2=O (centres unmarked) [BUCMD00711],CC50 at 72 h,[1],5.01 µM
same,"L. donovani amastigotes EC75 (μM, B10R cells)",[2],>10 µM
CC(C)Cc1n[nH]c2c1C(c1ccc(Cl)cc1Cl)N(c1ccc(C(=O)N3CCCC3)cc1)C2=O (centres unmarked) [BUCMD00712],CC50 at 72 h,[1],1.58 µM
same,"L. donovani amastigotes EC75 (μM, B10R cells)",[2],>10 µM
Cc1ccccc1C1c2c(CC(C)C)n[nH]c2C(=O)N1c1ccc(C(=O)N2CCCC2)cc1 (centres unmarked) [BUCMD00713],CC50 at 72 h,[1],10 µM
same,"L. donovani amastigotes EC75 (μM, B10R cells)",[2],>10 µM
CC(C)Cc1n[nH]c2c1C(c1ccc(F)cc1F)N(c1ccc(C(=O)N3CCCC3)cc1)C2=O (centres unmarked) [BUCMD00714],CC50 at 72 h,[1],10 µM
same,"L. donovani amastigotes EC75 (μM, B10R cells)",[2],>10 µM
Cc1cc(F)ccc1C1c2c(CC(C)C)n[nH]c2C(=O)N1c1ccc(N2CCN(C)CC2)nc1 (centres unmarked) [BUCMD00717],CC50 at 72 h,[1],7.94 µM
same,"L. donovani amastigotes EC75 (μM, B10R cells)",[2],1.0 µM
CC(C)Cc1n[nH]c2c1C(c1ccc(F)cc1Cl)N(c1ccc(N3CCN(C)CC3)nc1)C2=O (centres unmarked) [BUCMD00718],CC50 at 72 h,[1],6.31 µM
same,"L. donovani amastigotes EC75 (μM, B10R cells)",[2],1.0 µM
CC(C)Cc1n[nH]c2c1C(c1ccc(Cl)cc1Cl)N(c1ccc(N3CCN(C)CC3)nc1)C2=O (centres unmarked) [BUCMD00719],CC50 at 72 h,[1],2 µM
same,"L. donovani amastigotes EC75 (μM, B10R cells)",[2],>10 µM
CC(C)Cc1n[nH]c2c1C(c1ccc(F)cc1F)N(c1ccc(N3CCN(C)CC3)nc1)C2=O (centres unmarked) [BUCMD00722],CC50 at 72 h,[1],7.94 µM
same,"L. donovani amastigotes EC75 (μM, B10R cells)",[2],>10 µM
"CC(C)Cc1n[nH]c2c1C(c1ccc(F)cc1)N(c1ccc3c(c1)OCO3)C2=O (centres unmarked) [Compound 44, 5-(benzo[d][1,3]dioxol-5-yl)-4-(4-fluorophenyl)-3-isobutyl-4,5-dihydropyrrolo[3,4-c]pyrazol-6(1H)-one]",solubility,[3]; aqueous medium,63 µM
same,Papp at 3 h,[4],39 ×10⁻⁶ cm/s
same,PFI,[5],8.4
same,HSA Binding,human serum albumin,96.2%
same,EC50,host THP-1 macrophages,25.1 µM
same,EC50,HepG2 cells,63.1 µM
same,IC50,[2],0.3 µM
same,IC50,[6],0.6 µM
same,EC50,[6],0.6 µM
CC(C)Cc1n[nH]c2c1C(c1ccc(F)cc1)N(c1ccc3c(c1)OCCO3)C2=O (centres unmarked) [Compound 45],solubility,[3]; aqueous medium,50 µM
same,Papp at 3 h,[4],51 ×10⁻⁶ cm/s
same,PFI,[5],8.4
same,HSA Binding,human serum albumin,96.2%
same,EC50,host THP-1 macrophages,25.1 µM
same,EC50,HepG2 cells,> 50 µM
same,IC50,[2],0.9 µM
same,IC50,[6],3.2 µM
same,EC50,[6],3.2 µM
"COc1ccc(N2C(=O)c3[nH]nc(CC(C)C)c3C2c2ccccc2Cl)cc1 (centres unmarked) [Compound 55, 4-(2-chlorophenyl)-3-isobutyl-5-(4-methoxyphenyl)-4,5-dihydropyrrolo[3,4-c]pyrazol-6(1H)-one]",solubility,[3]; [7],30 µM
same,Papp at 3 h,[4],33 ×10⁻⁶ cm/s
same,PFI,[5],8.8
same,HSA Binding,human serum albumin,97.8%
same,EC50,host THP-1 macrophages,20 µM
same,EC50,HepG2 cells,31.6 µM
same,IC50,[2],0.2 µM
same,IC50,[6],1.3 µM
same,EC50,[6],1.3 µM
COc1ccc(N2C(=O)c3[nH]nc(CC(C)C)c3C2c2ccsc2)cc1 (centres unmarked) [Compound S3],solubility,[3]; [7],149 µM
same,Papp at 3 h,[4],47 ×10⁻⁶ cm/s
same,PFI,[5],8.3
same,HSA Binding,human serum albumin,95.4%
same,EC50,host THP-1 macrophages,> 50 µM
same,EC50,HepG2 cells,> 100 µM
same,IC50,[2],4 µM
same,IC50,[6],6.3 µM
same,EC50,[6],6.3 µM
COc1ccc(N2C(=O)c3[nH]nc(CC(C)C)c3C2c2ccc(F)cn2)cc1 (centres unmarked) [Compound S10],solubility,[3]; [7],≥ 343 µM
same,Papp at 3 h,[4],49 ×10⁻⁶ cm/s
same,PFI,[5],7.7
same,HSA Binding,human serum albumin,90.2%
same,EC50,host THP-1 macrophages,> 50 µM
same,EC50,HepG2 cells,> 100 µM
same,IC50,[2],3.4 µM
same,IC50,[6],10 µM
same,EC50,[6],10 µM
